Patent publication US20250205384A1, “HEMOSTATIC MATERIAL” (Toray Industries, Inc., priority 2018, published 2025)

Key:
[1] = Thickness of lipid membrane from SEM observation image; format: physicochemical; settings: lipid on PLLA fiber sheet, SEM ×5,000 (FIGS. 17 to 20)
Description: The thickness of the lipid membrane is preferably 10 to 1,000 nm, more preferably 30 to 500 nm, and still more preferably 60 to 240 nm. The method of measuring the lipid membrane is as follows. The lipid membrane is observed with a scanning electron microscope (SEM). The thickness of five points optionally selected in the SEM observation image is measured, and the mean is regarded as the thickness of the lipid membrane.
An SEM observation image (×1,000) of the base complex before supporting a lipid is shown in FIG. 9, and SEM observation images (×1,000) of the hemostatic materials E2 to E8 are shown in FIGS. 10 to 16, respectively.

[2] = Solubility in t-butyl alcohol; settings: in words
[3] = test system: guinea pig-derived PRP; test: Evaluation of platelet aggregation capacity of hemostatic material (in vitro), protein assay of attached platelets; format: cell-based; settings: lipid supported on base part in place of DHSG lipids
Description: From the hemostatic materials D1, D2, D3 and D4, a base part (fiber sheet part) supporting DHSG, Asp-DHSG, Glu-DHSG and AG-DHSG, respectively, was taken out. To a 12-well plate, the base part (fiber sheet part) that was taken out and 1 mL of guinea pig-derived PRP (2.0×10^5/μL) prepared by the abovementioned method were added. Thereafter, ADP (1 μM, 100 μL) that activates platelets was added, and after allowing to stand at room temperature for 5 minutes, the mixture was washed with 1 mL of DPBS twice. Thereafter, to dissolve platelets attached to the base part (fiber sheet part), 500 μL of 0.5% Triton X was added, followed by allowing to stand at room temperature for 1 hour to obtain a platelet lysate. To a 96-well plate, 10 μL of the platelet lysate prepared by the abovementioned method and 150 μL of Pierce (trademark) 660 nm Protein Assay Kit were added, followed by allowing to stand for 5 minutes. By measuring absorbance at 660 nm using a microplate reader, proteins were quantitatively determined, and the determination results were used as an index of the count of platelets which were not washed away and were attached to the fiber sheet. The results in FIG. 8 are relative values when the platelet count in using the hemostatic material D1 is regarded as 1. […]

thickness of the lipid membrane [1] [nm]	SMILES	also measured
124	CCCCCCCCCCCCCCCCOC(=O)CCC(NC(=O)CCC(=O)NC(CCC(=O)NC(CC(=O)O)C(=O)O)C(=O)NC(CC(=O)O)C(=O)O)C(=O)OCCCCCCCCCCCCCCCC (stereo not drawn) [AG-DHSG]	–
153	CCCCCCCCCCCCCCCCOC(=O)CCC(NC(=O)CCC(=O)NC(CC(=O)O)C(=O)O)C(=O)OCCCCCCCCCCCCCCCC (stereo not drawn) [Asp-DHSG]	–
131	CCCCCCCCCCCCCCCCOC(=O)CCC(NC(=O)CCC(=O)O)C(=O)OCCCCCCCCCCCCCCCC [DHSG, 1,5-Dihexadecyl-N-Succinyl-L-Glutamate]	–
187	CCCCCCCCCCCCCCCCOC(=O)CCC(NC(=O)CCC(=O)NC(CCC(=O)O)C(=O)O)C(=O)OCCCCCCCCCCCCCCCC (stereo not drawn) [Glu-DHSG]	–

Further lines, the molecule ahead of its results:

SMILES	thickness of the lipid membrane [1] [nm]	also measured
CCCCCCCCCCCCCCCC(=O)OCC(COP(=O)(O)O)OC(=O)CCCCCCCCCCCCCCC (stereo not drawn) [Anionic DPPA]	–	solubility in t-butyl alcohol compared with the DPPA sodium salt [2]: higher solubility in t-butyl alcohol
CCCCCCCCCCCCCCCC(=O)OC[C@H](COP(=O)([O-])OCC[N+](C)(C)C)OC(=O)CCCCCCCCCCCCCCC [DPPC, 1,2-dipalmitoyl-sn-glycero-3-phosphatidylcholine]	–	platelets detected on the base part (fiber sheet part) after washing [3]: no platelets were detected
